Results on ten compounds are retold here after patent publication US9493490B1, “Boron-containing small molecules” (Anacor Pharmaceuticals, Inc., priority 2013, dated 2016).

Where two headings read alike, the source gives them in different places.

One test concerns the target PKCa (Homo sapiens (Human), UniProt P17252). The experiment in a line: PKCa phosphorylation activity. The class given is biochemical. Conditions: 10 uM ATP. The procedure:
(§1) Phosphorylation of activity of ROCK1 and ROCK2 and those of other kinases, AKT1, GRK2, PKA, PKCa and RSK1 were performed by Reaction Biology (Malvern, Pa.) (Ma et al., 2008) The ROCK1 enzyme tested was GST[1-535] ROCK1 (Genbank, NP 005397), ROCK2 was GST[5-554] (Genbank, 3327051). For the kinase assay buffers contained 20 mM Hepes, 10 mM MgCl2, 2 mM DTT, 0.02 mg/mL BSA, 0.1% DMSO, 1 mM EGTA, 0.02% Brij-35, 10 uM ATP, [γP^33]-ATP and for ROCK enzymes, 20 uM long S6-peptide (32 amino acids length). Appropriate substrates and activation was applied for the other kinases tested. Each enzyme was preincubated with test compound for 15 min., and the reaction started by addition of ATP. Samples were incubated at room temperature for 120 min, and applied to P81 ion exchange paper and washed extensively; the radioactive content of the filters were determined. […] Selectivity ratio is the value for PKA/ROCK2.

The target in test [1] is T1, ROCK1 (Homo sapiens (Human), UniProt Q13464). The experiment in a line: ROCK1 phosphorylation activity (Reaction Biology, radiometric). The class given is biochemical, H. sapiens. The procedure:
as §1
Target sequence in this assay (Q13464 1-535): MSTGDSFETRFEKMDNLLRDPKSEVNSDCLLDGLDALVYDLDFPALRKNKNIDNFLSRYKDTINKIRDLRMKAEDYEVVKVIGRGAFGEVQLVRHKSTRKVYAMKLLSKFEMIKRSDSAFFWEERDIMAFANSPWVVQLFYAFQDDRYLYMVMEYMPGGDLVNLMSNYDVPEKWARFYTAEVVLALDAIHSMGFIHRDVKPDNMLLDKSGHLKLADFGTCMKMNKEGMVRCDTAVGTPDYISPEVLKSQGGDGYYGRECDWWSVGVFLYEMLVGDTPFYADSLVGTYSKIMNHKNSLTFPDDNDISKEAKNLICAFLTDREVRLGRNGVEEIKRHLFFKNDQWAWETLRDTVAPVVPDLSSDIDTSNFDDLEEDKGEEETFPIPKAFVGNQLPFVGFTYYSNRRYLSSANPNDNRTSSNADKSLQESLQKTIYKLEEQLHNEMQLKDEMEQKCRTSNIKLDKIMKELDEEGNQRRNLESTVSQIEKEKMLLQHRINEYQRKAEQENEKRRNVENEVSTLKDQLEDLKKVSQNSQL

For test [2], the target named is T2, ROCK2 (Homo sapiens (Human), UniProt O75116). The experiment in a line: ROCK2 phosphorylation activity (Reaction Biology, radiometric). The class given is biochemical. The conditions noted are these: for IC50: 10 uM ATP. Here is the method:
as §1
Target sequence in this assay (O75116 5-554): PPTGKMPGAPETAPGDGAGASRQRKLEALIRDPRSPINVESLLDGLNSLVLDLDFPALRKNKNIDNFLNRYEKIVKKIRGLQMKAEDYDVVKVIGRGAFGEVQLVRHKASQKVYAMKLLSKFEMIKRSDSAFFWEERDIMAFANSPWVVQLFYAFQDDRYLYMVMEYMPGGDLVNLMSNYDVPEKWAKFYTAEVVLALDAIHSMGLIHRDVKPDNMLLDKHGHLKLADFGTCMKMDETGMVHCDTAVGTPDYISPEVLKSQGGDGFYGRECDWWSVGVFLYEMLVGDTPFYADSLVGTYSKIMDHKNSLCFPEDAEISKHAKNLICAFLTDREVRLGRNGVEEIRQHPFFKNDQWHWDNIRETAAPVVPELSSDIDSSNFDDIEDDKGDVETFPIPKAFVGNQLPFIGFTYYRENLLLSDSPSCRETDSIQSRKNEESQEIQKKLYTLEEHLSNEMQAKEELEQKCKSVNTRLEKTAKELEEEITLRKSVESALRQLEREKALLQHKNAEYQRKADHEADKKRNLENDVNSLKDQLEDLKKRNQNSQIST

In test [3] the test system is p-MYPT1 phosphorylation in PANC-1 cells. The test is described as follows: Intracellular MYPT1 phosphorylation assay in PANC-1 cells. Format: cell-based, H. sapiens. Conditions: Homo sapiens. Here is the method: Intracellular MYPT1 phosphorylation assay used the procedures of Garton et al. with minor modifications (Garton et al. Methods Enzymol. 2008; 439:491-500). PANC-1 cells (ACTT, CRL-1469), 18×10^3/well, grown over night in DMEM medium supplemented with 4.5 g/L glucose, L-glutamine, sodium pyruvate and 10% FBS at 37° C. Compounds were applied to the cells for one hour (DMSO final 1%) and the cells were then lysed. Phosphorylated-MYPT1 was detected using plate immobilized anti-MYPT1 antibody (BD Biosciences, cat. 612165), anti-phospo-MYPT1([…]), US Biological, cat. M9925-08) and secondary HRP-conjugated goat anti-rabbit IgG antibody (Jackson Laboratories, cat. 111-035-003), phospho-MYPT1 was quantified using color formed by the tetramethylbenzidine (TMB) HRP substrate.

In test [4] the target is T2, ROCK2. The test is described as follows: Kinase binding panel (KINOMEscan), ROCK2. Conditions: table under Kinase Binding Panel. Here is the method: (§2) Kinase inhibition potency was measured using KINOMEscan™ technology across 402 human kinases [Fabian et al., Nat Biotechnol. 2005 March; 23(3):329-36] (DiscoverRx, Inc., (Fremont, Calif.)). The assay is based on a competition binding assay which quantitatively measures the ability of a compound to compete with an immobilized, active-site directed ligand. […] 2008 January; 26(1):127-32; Fabian et al., Nat Biotechnol. 2005 March; 23(3):329-36]. The assay is performed by combining three components: DNA-tagged kinase; immobilized ligand; and a test compound. Binding reactions were assembled by combining, for 1 hr at room temperature, kinases, liganded affinity beads, and test compounds in binding buffer (20% SeaBlock, 0.17×PBS, 0.05% Tween-20, 6 mM DTT). The assay plates were washed and then re-suspended in elution buffer for 30 min. (PBS, 0.05% Tween 20, 0.5 μM non-biotinylated affinity ligand). The kinase concentration in the eluates was measured by qPCR.

A further test deals with AKT1 (Homo sapiens (Human), UniProt P31749). The experiment in a line: AKT1 phosphorylation activity. Format: biochemical. The conditions noted are these: 10 uM ATP. Here is the method: as §1
Test [5] relates to TNF-a secretion from LPS stimulated hPBMC. The experiment in a line: Inhibition of TNF-a secretion from LPS stimulated hPBMC. Format: cell-based, human. The conditions noted are these: LPS for 24 hours. The procedure:
Measurement of the inhibition of cytokine secretion from stimulated human peripheral blood mononuclear cells by drugs was performed as described in Dong C. et al., J Pharmacol Exp Ther. 2013 February; 344(2):436-46; and Akama T. et al., Bioorg Med Chem Lett. 2013 Mar. 15; 23(6):1680-3. Briefly PBMC were incubated with drug, and stimulators; LPS for 24 hours to release TNF-α, and IL-6; PHA for 24 hours, to release IL-2 and IFN-γ, and PHA for 48 hours, to release IL-5 and IL-13. The cell culture supernatants were collected for cytokine determinations using Cisbio HTRF cytokine determination kits. Compounds were prepared using an eight point 1:10 dilution series starting at 10 or 100 uM; the resulting dose-response curves were fit to the four parameter sigmoid equation.

The next test concerns the target RSK1 (Homo sapiens (Human), UniProt Q15418). The experiment in a line: RSK1 phosphorylation activity. The class given is biochemical. Conditions: 10 uM ATP. Here is the method:
as §1

For another test, the target named is GRK2 (Homo sapiens (Human), UniProt P25098). The experiment in a line: GRK2 phosphorylation activity. The class given is biochemical. The conditions noted are these: 10 uM ATP. The procedure: as §1
For test [6], the target named is T1, ROCK1. The experiment in a line: Kinase binding panel (KINOMEscan), ROCK1. The conditions noted are these: table under Kinase Binding Panel. Here is the method:
as §2
Target sequence in this assay (Q13464 whole entry): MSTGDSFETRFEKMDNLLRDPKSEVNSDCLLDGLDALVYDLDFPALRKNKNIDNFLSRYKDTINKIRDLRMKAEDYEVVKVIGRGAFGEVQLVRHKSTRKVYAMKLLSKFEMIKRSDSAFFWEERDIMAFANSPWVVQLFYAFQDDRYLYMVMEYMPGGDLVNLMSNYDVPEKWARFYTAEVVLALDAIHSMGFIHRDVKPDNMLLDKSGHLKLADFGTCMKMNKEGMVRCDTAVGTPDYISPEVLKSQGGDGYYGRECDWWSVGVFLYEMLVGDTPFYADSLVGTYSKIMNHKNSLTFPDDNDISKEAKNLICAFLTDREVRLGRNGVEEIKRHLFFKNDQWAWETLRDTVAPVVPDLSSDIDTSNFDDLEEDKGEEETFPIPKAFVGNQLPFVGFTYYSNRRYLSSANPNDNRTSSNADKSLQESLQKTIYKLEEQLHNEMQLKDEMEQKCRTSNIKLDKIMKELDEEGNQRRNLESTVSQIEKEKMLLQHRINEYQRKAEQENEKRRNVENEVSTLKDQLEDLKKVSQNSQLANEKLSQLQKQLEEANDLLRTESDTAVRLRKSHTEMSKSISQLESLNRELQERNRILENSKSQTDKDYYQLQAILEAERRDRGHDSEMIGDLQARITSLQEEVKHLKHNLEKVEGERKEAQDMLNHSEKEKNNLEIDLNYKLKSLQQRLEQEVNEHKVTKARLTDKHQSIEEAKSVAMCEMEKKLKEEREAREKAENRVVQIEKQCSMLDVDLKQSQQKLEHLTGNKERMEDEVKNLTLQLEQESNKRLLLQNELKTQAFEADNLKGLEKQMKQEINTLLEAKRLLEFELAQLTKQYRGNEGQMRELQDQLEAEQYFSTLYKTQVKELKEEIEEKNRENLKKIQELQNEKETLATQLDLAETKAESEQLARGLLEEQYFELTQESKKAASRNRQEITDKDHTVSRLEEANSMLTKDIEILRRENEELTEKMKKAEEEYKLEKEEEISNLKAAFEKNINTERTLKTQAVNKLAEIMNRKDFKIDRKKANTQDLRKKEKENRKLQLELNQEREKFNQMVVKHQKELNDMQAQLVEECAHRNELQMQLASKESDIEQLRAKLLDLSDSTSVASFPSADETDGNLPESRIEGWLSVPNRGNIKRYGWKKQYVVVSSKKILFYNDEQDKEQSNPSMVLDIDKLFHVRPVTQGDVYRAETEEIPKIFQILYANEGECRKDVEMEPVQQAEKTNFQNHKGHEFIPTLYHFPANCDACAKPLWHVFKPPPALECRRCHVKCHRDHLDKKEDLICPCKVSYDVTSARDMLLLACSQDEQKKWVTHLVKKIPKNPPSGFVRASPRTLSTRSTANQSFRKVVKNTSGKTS

In the next test the target is PKA (Homo sapiens (Human), UniProt P17612). The experiment in a line: PKA phosphorylation activity. The conditions noted are these: 10 uM ATP. The class given is biochemical. The procedure:
as §1

[7] abbreviates: read-out: IC50: ROCK1: H. sapiens.
The mark [8] stands for this setting: read-out: Inhibition of hROCK1 Phosphorylation [IC50.
The mark [9] stands for this setting: PANC-1 cells, .0417 days (compounds applied for one hour), read-out: IC50: Inhib p-MYPT1 Phosphorylation in H. sapiens PANC-1 cells, .0417 days.
The mark [10] stands for this setting: 10 uM ATP, read-out: ROCK1 IC50.

Sequence of AKT1 (P31749 whole entry, species assumed): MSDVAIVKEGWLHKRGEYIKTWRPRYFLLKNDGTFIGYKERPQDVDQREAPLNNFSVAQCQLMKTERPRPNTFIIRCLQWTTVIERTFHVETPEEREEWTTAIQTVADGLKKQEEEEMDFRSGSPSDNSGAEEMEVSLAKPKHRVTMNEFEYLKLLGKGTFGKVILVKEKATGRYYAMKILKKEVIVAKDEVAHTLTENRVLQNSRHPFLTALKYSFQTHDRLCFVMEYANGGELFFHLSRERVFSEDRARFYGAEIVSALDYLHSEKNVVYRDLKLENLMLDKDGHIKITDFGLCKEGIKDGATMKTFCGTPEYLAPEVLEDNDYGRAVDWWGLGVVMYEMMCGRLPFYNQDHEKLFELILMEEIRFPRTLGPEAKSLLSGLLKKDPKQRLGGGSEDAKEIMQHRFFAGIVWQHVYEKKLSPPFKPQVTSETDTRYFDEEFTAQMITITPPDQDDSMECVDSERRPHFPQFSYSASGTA
Sequence of GRK2 (P25098 whole entry, species assumed): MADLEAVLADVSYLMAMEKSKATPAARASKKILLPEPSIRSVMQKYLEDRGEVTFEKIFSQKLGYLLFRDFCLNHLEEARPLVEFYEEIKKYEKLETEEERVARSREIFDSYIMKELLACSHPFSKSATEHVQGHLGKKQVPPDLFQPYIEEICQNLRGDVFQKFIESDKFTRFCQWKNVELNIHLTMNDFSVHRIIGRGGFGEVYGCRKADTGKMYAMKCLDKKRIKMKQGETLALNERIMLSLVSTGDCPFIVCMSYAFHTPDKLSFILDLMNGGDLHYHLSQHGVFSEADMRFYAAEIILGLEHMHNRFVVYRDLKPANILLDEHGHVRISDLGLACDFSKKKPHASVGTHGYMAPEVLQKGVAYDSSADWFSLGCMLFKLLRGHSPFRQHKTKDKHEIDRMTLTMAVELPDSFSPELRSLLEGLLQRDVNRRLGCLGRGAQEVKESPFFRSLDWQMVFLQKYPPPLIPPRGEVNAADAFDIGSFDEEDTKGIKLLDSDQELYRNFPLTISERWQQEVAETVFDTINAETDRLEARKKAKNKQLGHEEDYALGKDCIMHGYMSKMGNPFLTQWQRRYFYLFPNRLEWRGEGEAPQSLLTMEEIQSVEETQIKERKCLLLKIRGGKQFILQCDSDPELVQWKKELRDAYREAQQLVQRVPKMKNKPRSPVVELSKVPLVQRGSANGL
Sequence of RSK1 (Q15418 whole entry, species assumed): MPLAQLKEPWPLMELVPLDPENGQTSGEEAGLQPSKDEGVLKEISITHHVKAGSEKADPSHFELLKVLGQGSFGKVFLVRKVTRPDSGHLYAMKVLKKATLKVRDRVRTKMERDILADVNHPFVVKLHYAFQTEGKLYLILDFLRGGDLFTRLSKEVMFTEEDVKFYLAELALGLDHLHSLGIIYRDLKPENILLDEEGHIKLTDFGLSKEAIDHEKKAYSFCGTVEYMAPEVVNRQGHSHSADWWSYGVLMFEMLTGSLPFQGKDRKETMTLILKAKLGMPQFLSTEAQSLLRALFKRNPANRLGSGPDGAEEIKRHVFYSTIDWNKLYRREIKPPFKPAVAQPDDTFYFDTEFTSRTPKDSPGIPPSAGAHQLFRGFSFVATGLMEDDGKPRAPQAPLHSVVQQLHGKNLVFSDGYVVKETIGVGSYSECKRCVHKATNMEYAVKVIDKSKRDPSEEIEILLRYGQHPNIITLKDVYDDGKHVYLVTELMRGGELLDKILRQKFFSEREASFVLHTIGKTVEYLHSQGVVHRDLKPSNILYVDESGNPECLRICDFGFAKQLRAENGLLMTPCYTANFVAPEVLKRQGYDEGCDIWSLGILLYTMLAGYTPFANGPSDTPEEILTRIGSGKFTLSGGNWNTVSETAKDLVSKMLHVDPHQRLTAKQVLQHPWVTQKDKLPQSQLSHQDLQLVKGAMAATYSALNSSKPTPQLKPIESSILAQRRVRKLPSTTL

As for `Cc1c(Oc2ccc(C(C)N)cc2F)ccc2c1B(O)OC2.Cl` (single isomer, unassigned) [F], the IC50 at PKCa was above 20 µM; at ROCK1 [1] (setting [7]), 0.54 µM; at ROCK1 [1] (setting [8]), 0.54 µM; in test [3] (setting [9]), 56.4 µM; at ROCK2 [4], 0.51 µM; against AKT1, 44.1 µM. The IC50 is 20.5 µM in test [5]; 17.2 µM on RSK1; above 20 µM against GRK2; 0.54 µM on ROCK1 [6]; 11 µM against PKA. The “SELECTIVITY RATIO” value on ROCK2 [2] (value for PKA/ROCK2) worked out at 21.51.
As for `Cc1c(Oc2ccc(C(C)N)cc2F)ccc2c1B(O)OC2` (single isomer, unassigned) [G], the IC50 worked out at 15.6 µM against PKCa; 0.17 µM at ROCK1 [1] (setting [7]); 0.17 µM on ROCK1 [1] (setting [8]); 18.7 µM in test [3] (PANC-1, read-out: IC50: Inhib p-MYPT1 Phosphorylation in H. sapiens PANC-1 cells, .0417 days [uM]); 0.17 µM on ROCK2 [4]; 10.9 µM on AKT1. Also, the IC50 in test [5] amounted to 5.18 µM; on RSK1 it was 3.62 µM; at GRK2, 13.9 µM; on ROCK1 [6], 0.17 µM; at PKA, 1.79 µM. Further, at ROCK2 [2] (value for PKA/ROCK2), the “S[…]” value is 10.40.
Turning to `CCc1c(Oc2ccc(CN)cc2Cl)ccc2c1B(O)OC2` [A, 6-(4-(Aminomethyl)-2-chlorophenoxy)-7-ethylbenzo[c][1,2]oxaborol-1(3H)-ol], the IC50 was 0.29 µM at ROCK1 [1] (setting [8]), 0.25 µM on ROCK2 [4], 3.61 µM in test [5] (Homo sapiens) and 0.29 µM at ROCK1 [6].
`NCc1ccc(Oc2ccc3c(c2Cl)B(O)OC3)c(Cl)c1` [B, 6-(4-(aminomethyl)-2-chlorophenoxy)-7-chlorobenzo[c][1,2]oxaborol-1(3H)-ol]: the IC50 at ROCK1 [1] (setting [8]) came to 11 µM; on ROCK2 [4] it was 16 µM; in test [5] (Homo sapiens), 99 µM; at ROCK1 [6], 23 µM.
As for `CC(N)c1ccc(Oc2ccc3c(c2)B(O)OC3)c(F)c1.Cl` (stereo not shown) [C, 6-(4-(1-aminoethyl)-2-fluorophenoxy)benzo[c][1,2]oxaborol-1(3H)-ol], the half-maximal inhibitory concentration (IC50) against PKCa was above 20 µM; on ROCK1 [1] (setting [7]), 0.54 µM; on ROCK1 [1] (setting [8]), 0.54 µM; in test [3] (setting [9]) it was 48.1 µM; at ROCK2 [4] it was 0.45 µM; on AKT1 it was above 30 µM. For the same compound, the 50% inhibitory concentration (IC50) was 12 µM in test [5] (Homo sapiens, 24 h); above 50 µM at RSK1; above 20 µM against GRK2; 0.54 µM at ROCK1 [6]; above 50 µM at PKA. The “SELECTIVITY RATIO” value at ROCK2 [2] (value for PKA/ROCK2) was above 111.
Turning to `Cc1c(Oc2ccc(CN)cc2F)ccc2c1B(O)OC2` [D, 6-(4-(aminomethyl)-2-fluorophenoxy)-7-methylbenzo[c][1,2]oxaborol-1(3H)-ol], the IC50 on PKCa was above 20 µM; on ROCK1 [1] (setting [7]) it was 0.34 µM; on ROCK1 [1] (setting [8]) it was 0.34 µM; in test [3] (setting [9]), 18.2 µM; on ROCK2 [4] it was 0.25 µM; against AKT1 it was 9.25 µM. The IC50 in [5] (Homo sapiens, 24 h) is 12.3 µM; against RSK1, 5.01 µM; against GRK2, above 20 µM; at ROCK1 [6], 0.34 µM; against PKA, 4.06 µM. Besides, at ROCK2 [2] (value for PKA/ROCK2), the “SELECTIVITY RATIO” value stood at 16.29.
With `Cc1c(Oc2ccc(C(C)N)cc2F)ccc2c1B(O)OC2` (stereo not shown) [E, 6-(4-(1-aminoethyl)-2-fluorophenoxy)-7-methylbenzo[c][1,2]oxaborol-1(3H)-ol], the IC50 was above 20 µM against PKCa; 0.42 µM at ROCK1 [1] (setting [7]); 0.42 µM at ROCK1 [1] (setting [8]); 39.7 µM in test [3] (setting [9]); 0.25 µM on ROCK2 [4]; 21.5 µM against AKT1. For the same compound, the IC50 in test [5] (Homo sapiens, 24 h) is 5.4 µM; on RSK1, 8.31 µM; against GRK2, above 20 µM; at ROCK1 [6], 0.42 µM; at PKA it was 6.09 µM. For the same compound, the “SELECTIVITY RATIO” value on ROCK2 [2] (value for PKA/ROCK2) is 24.74.
In the case of `Cc1c(Oc2cccc(CNC(=O)OC(C)(C)C)c2F)ccc2c1B(O)OC2` [L, tert-butyl 2-fluoro-3-(1-hydroxy-7-methyl-1,3-dihydrobenzo[c][1,2]oxaborol-6-yloxy)benzylcarbamate], the concentration for half-maximal inhibition (IC50) against PKCa is above 30 µM; at ROCK1 [1] (setting [8]) it was 0.72 µM; against ROCK2 [2] it was 0.66 µM; at ROCK2 [4] it was 0.664 µM; on AKT1, above 30 µM; against RSK1, 25 µM. The results for the IC50 at GRK2, on ROCK1 [6] and against PKA were above 30 µM, 0.72 µM and 7.88 µM, respectively. Further, the “SELECTIVITY RATIO” value on ROCK2 [2] (value for PKA/ROCK2) is recorded as 11.87.
Regarding `Cc1c(Oc2cccc(CN)c2F)ccc2c1B(O)OC2` [M, 6-(3-(aminomethyl)-2-fluorophenoxy)-7-methylbenzo[c][1,2]oxaborol-1(3H)-ol], the IC50 on PKCa was above 30 µM; at ROCK1 [1] (setting [10]), 0.25 µM; at ROCK1 [1] (setting [8]), 0.247 µM; on ROCK2 [2] it was 0.22 µM; at ROCK2 [4], 0.216 µM; on AKT1, above 30 µM. Besides, the IC50 against RSK1 was 5.19 µM; against GRK2 it was above 30 µM; on ROCK1 [6], 0.247 µM; on PKA, 3.38 µM. Besides, the “SELECTIVITY RATIO” value on ROCK2 [2] (value for PKA/ROCK2) turned out to be 15.65.
`CC(C)c1c(Oc2ccc(CN)cc2Cl)ccc2c1B(O)OC2` [N, 6-(4-(aminomethyl)-2-chlorophenoxy)-7-isopropylbenzo[c][1,2]oxaborol-1 (3H)-ol]: the IC50 on PKCa came out at 10.8 µM; on ROCK1 [1] (setting [10]), 0.06 µM; on ROCK1 [1] (setting [8]), 0.596 µM; at ROCK2 [2], 0.047 µM; at ROCK2 [4], 0.0472 µM; against AKT1, 4.22 µM. Besides, the IC50 was 5.63 µM in test [5] (Homo sapiens), 0.195 µM on RSK1, 0.0596 µM on ROCK1 [6] and 0.055 µM against PKA. For the same compound, at ROCK2 [2] (value for PKA/ROCK2), the “SELECTIVITY RATIO” value turned out to be 1.17.

In general, IC50 refers to the point on the concentration scale where inhibition reaches its midpoint.
